Molecules are shown by their SMILES. Some results are limits rather than exact numbers.

A short description of series [1]: Drug ocular retention in vivo after SC injection (autofluorescence imaging of eyeballs). Also on record: species or system Sprague Dawley rats. The conditions noted are these: rat eye. The method, then: At post injection (PI) day 0, 1, 3, 7, 14 and 28, the whole eyeballs (n=4) were harvested after the animals were sacrificed. […] The fluorescent images were analyzed using the Living Image 3.0 software (Caliper Lifesciences, Inc.), and the retention of sunitinib was quantified by comparing to the fluorescence counts of the eye immediately undertaken SC injection. Rat eyes without SC injection were used as the baseline.

The subject of series [2] is corneal NV. The series can be described thus: Treatment of suture-induced corneal NV, quantitative analysis of NV area and length. Type of series: in vivo, Sprague Dawley rats. Particulars: single SC injection 30 μL, 5 mg sunb-malate/mL; POD 5, 7, 14. An excerpt:
Corneal NV was induced by intrastromal suturing. […] The distance between the stitch and the limbus was approximately 2 mm while there was a distance of 1 mm between the two stitches. […] Erythromycin antibiotic ointment was applied to prevent potential infection and corneal dry-up. The rats were followed for 2 weeks. The corneas of all rats were examined by slit-lamp biomicroscope (SL120; Carl Zeiss AG, Oberkochen, Germany) and corneal photographs were taken with a digital camera. The area and length of vascularized cornea were quantified with Photoshop CS3.0. The arc was drawn along the limbus, the vascularized area pixel measured and the corneal NV area was calculated using the following equation: The vascularized area was evenly divided into six sections. The distance between vessel tips and the limbus at the five intersection points of the arc was measured. The average of the five measured lengths was regarded as the corneal NV length.

Series [3] can be described thus: Solubility of sunb-malate in PBS. The series is classed as physicochemical.

As to `CCN(CC)CCNC(=O)c1c(C)[nH]c(/C=C2\C(=O)Nc3ccc(F)cc32)c1C.O=C(O)C[C@H](O)C(=O)O` [Sunb-malate free drug, Sunitinib malate], the “time to clearance after SC injection” value in series [1] (30 μL of 5 mg/mL) was at most 1 days. Further, the “time to almost no drug retention in the eye” value in series [1] (SC injection) was at most 24 h. For the same compound, the “inhibition of corneal NV (length and area)” value in series [2] was “negligible effect”. The “concentration dissolved in PBS” value in series [3] was “at least 25 mg/mL”.

The record behind these values is patent publication US20170273901A1, “SUNITINIB FORMULATIONS AND METHODS FOR USE THEREOF IN TREATMENT OF OCULAR DISORDERS” (THE JOHNS HOPKINS UNIVERSITY, priority 2014, published 2017).
